Data taken from patent US20050187150A1, “Structure-based design and synthesis of FGF inhibitors and FGF modulator compounds” (New York University, priority 2001, published 2005).

Legend:
FGF2-FGFR1 complexes [1] = target: T1, FGF2-FGFR1 complexes (Homo sapiens, UniProt P09038+P11362); assay: Size exclusion chromatography of purified 1:1 FGF2:FGFR1 complexes mixed with test compound (dimerization); assay type: binding; details: for dimerization of FGF:FGFR complex (peaks in size exclusion chromatogram): compound added at 1:1:1 molar ratio FGF2:FGFR1:compound; for dimerization of FGF:FGFR complex (dimer peak D in size exclusion chromatogram): compound added at molar ratio 1:1:0.25 and 1:1:0.5 FGF2:FGFR1:compound, Superdex 200, 25 mM HEPES-NaOH pH 7.5, 150 mM NaCl
T1 construct: made in house
Excerpt: A construct encoding an extracellular ligand binding portion of the FGFR1 polypeptide set forth in FIG. 1A (SEQ ID NO:1) was expressed in E. coli and refolded […] using established protocols, as previously described by Plotnikov et al. (Cell 2000, 101:413-424). In particular, the soluble FGFR1 polypeptide expressed by this construct, which is referred to here as D23, comprises amino acid residues 142 to 365 of SEQ ID NO:1, which correspond to the immunoglobulin (Ig)-like domains 2 and 3 (D2 and D3, respectively), which are known to confer ligand binding and specificity for the FGFR receptor. However, the D23 polypeptide is missing the Ig-like domain 1 (D1), the acid box and the linker polypeptide sequence between D3 and the transmembrane helix. The D23 polypeptide is therefore similar to a naturally occurring splice variant of FGFR1 that retains full ligand binding capacity (Johnson et al., Mol. Cell. Biol. 1990, 10:4728-4736).
When expressed in E. coli cells, the D23 polypeptide was found entirely in inclusion bodies. The polypeptide was solubilized using standard denaturing reagents and refolded in vitro. Following purification by ion exchange chromatography, the D23 polypeptide was complexed with the FGF2 ligand polypeptide whose amino acid sequence is set forth in FIG. 2A (SEQ ID NO:3) and purified by size exclusion chromatography.
To quantitate dimerization, the purified 1:1 FGF2:FGFR1 complexes were mixed at various molar ratios with SOS and analyzed by size exclusion chromatography according on SUPERDEX 200® (Amersham Pharmacia Biotech.) size exclusion column in 25 mM HEPES-NaOH buffer (pH 7.5) containing 150 mM sodium chloride.
In these experiments, two milligram aliquots of the purified FGF2-FGFR1 complex described, supra, in Example 1 were mixed with suramin and analyzed on a size exclusion column equilibrated with 25 mM HEPES-NaOH buffer (pH 7.5) containing 150 mM NaCl.

[2] = tested on: BaF3 cells that stably expressed wild-type FGFR1; assay: Proliferation of BaF3 cells stably expressing FGFR1 in the presence of FGF2; assay type: cell-based
Excerpt: This example describes experiments that investigated the ability of SOS to modulate FGF ligand-dependent activation of the FGF receptor in vivo. In particular, an assay is described here that uses a BaF3 cell line which overexpresses FGFR1. This cell line has been previously described and is therefore known in the art (see, e.g., Huang et al., J. Biol. Chem. 1995, 270:5065-5072).
(§1) BaF3 cells are a lymphoid cell line, which are dependent on interleukin-3 (IL-3) for growth. […] Accordingly, the growth rate of such transfected cells is useful as a measurement of FGF receptor activity in vivo. Because BaF3 cells express only low amounts of HSPG, soluble heparin must also be present to elicit the FGF-dependent mitogenic response observed in the transfected cells.
For the experiments discussed here, BaF3 cells that stably expressed wild-type FGFR1 (SEQ ID NO:1) were cultured according to standard methods that have been previously described (see, Huang et al., supra). 1×10^4 cells were seeded in triplicate wells and grown in the presence of heparin (3 μM) or, alternatively, in the presence of various concentrations (0.1, 0.5, 1, 5 and 10 μM, respectively) of SOS. The numbers of viable cells in each well were counted daily in duplicate.
Paradoxically, however, FGFR dimers promoted by suramin are signaling incompetent. That is to say, the FGF receptor is not activated in these dimers. […]

FGF2-FGFR1 complexes [3] = target: T1, FGF2-FGFR1 complexes; assay: X-ray crystallography of the dimeric FGF2-FGFR1-SOS ternary complex
Experimental: This example describes x-ray crystallography experiments that better characterize the molecular mechanisms by which SOS may interact with and/or stabilize dimers of FGF-FGFR complexes. In particular, this example describes the crystalization of FGF2-FGFR1 complexes with SOS and the solution of that crystal structure by analyzing x-ray diffraction data.
Crystals of dimeric FGF2-FGFR1-SOS complexes were grown by vapor diffusion at 20° C. using the hanging drop method. 2 μL of protein solution (10 mg/mL in 25 mM HEPES-NaOH (pH 7.5) and 150 mM NaCl) was mixed with an equal volume of crystallization buffer (12-16% Polyethylene glycol 5000, 0.2 M ammonium sulfate and 15% glycerol in 0.1 M HEPES-NaOH (pH 7.5)). The protein solution contained a 1:1:1 stoichiometric ratio of FGF2, and soluble FGFR1 construct described, supra, in Example 1, and SOS.
The crystal belongs to the orthorhombic space group P21 21 21 and has unit cell dimensions of a=64.2 Å, b=122.4 Å and c=219.5 Å. The crystal contains four FGF2-FGFR1-SOS complexes in the asymmetric unit with a solvent content of about 56%.
Diffraction data were collected from a flash-frozen crystal on a CCD detector at beamline X4A at the National Synchrotron Light Source, Brookhaven National Laboratory. The data were processed using DENZO and SCALEPACK (Otwinowski & Minor, Methods Enzymol. 1997, 276:307-326). […]

FGFR1 = assay: FGF receptor autophosphorylation in BaF3 cells over-expressing FGFR (anti-FGFR1 immunoprecipitation, phosphotyrosine immunoblot); assay type: cell-based; details: five minutes stimulation with FGF1 50 ng/ml plus heparin 10 μg/ml or sulfonated cyclodextrin 5 or 25 μM
Experimental: To verify that the effect of sulfonated β-cyclodextrin observed in FIG. 15A is actually due to activation of the FGF receptor, experiments were conducted that examined the capacity of heparin and β-cyclodextrin to stimulate kinase activity of FGF receptor in living cells. See, Mohammadi et al., Science 1997, 276:955-960 for a detailed description of such experiments.
Briefly, BaF3 cells over-expressing FGFR were stimulated for five minutes with FGF1 ligand (50 ng/ml), heparin (10 μg/ml) and/or sulfonated […] 5 or 25 μM). The cells were then lysed. Their proteins were immunoprecipitated with antibodies to FGFR1, separated by SDS-polyacrylamide gel electrophoresis (PAGE), immunoblotted with antibodies to phosphotyrosine, and detected by autoradiography. […] See, the left-hand and right-hand lanes, respectively, in FIG. 15B.

ERK-1 and ERK-2 = assay: ERK-1/ERK-2 phosphorylation in BaF3 cells over-expressing FGFR1 (immunoblot); assay type: cell-based; details: co-incubation with FGF1 50 ng/ml; heparin 10 μg/ml or sulfonated β-cyclodextrin 5 and 25 μM
[4] = tested on: BaF3 cells that stably express wild-type FGFR1; assay: Proliferation of BaF3 cells stably expressing FGFR1 in the presence of FGF1; assay type: cell-based; details: FGF1 50 ng/ml; sulfonated β-cyclodextrin 1, 5, 10 and 25 μM
Excerpt: This examples describes experiments that investigate the ability of sulfonated β-cyclodextrin to function as an effective heparin agonists. In particular, the cell-based assay described in Example 2, supra, is used here to investigate the ability of sulfonated β-cyclodextrin to modulate FGF ligand-dependent activation of the FGF receptor in vivo.
as §1, with “The assay uses a BaF3 cell line which overexpresses FGFR1. This cell line has been previously described and is known in the art (see, e.g., Huang et al., J. Biol. Chem. 1995, 270:5065-5072). BaF3 cells” for “BaF3 cells”, “in vivo. Ordinarily, because BaF3 cells” for “in vivo. Because BaF3 cells”
For the experiments described here, BaF3 cells that stably express wild-type FGFR1 ([…]) were cultured according to standard methods that have been previously described (see, Huang et al., supra). […] The numbers of viable cells in each well were counted daily in duplicate. […]

T1 sequence (P11362 142-365): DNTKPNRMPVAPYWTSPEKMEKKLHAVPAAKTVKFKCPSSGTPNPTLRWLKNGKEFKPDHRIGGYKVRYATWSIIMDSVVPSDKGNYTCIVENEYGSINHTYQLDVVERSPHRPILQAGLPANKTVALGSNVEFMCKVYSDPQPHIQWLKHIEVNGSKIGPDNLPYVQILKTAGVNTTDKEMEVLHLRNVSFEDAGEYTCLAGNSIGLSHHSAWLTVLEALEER
T1 sequence (P09038 134-288): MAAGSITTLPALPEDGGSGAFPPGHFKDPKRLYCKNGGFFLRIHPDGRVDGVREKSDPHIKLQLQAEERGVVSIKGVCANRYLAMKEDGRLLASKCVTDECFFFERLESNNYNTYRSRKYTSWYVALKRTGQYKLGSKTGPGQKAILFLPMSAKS

Row | hydrogen bonds of the well ordered SOS molecule with FGF2 and both FGFR1 molecules (FGF2-FGFR1 complexes [3]; crystal structure at 2.6 Å resolution) | effect on FGF-FGFR binding affinity inferred from the crystal structure (FGF2-FGFR1 complexes [3]; interaction mimics heparin) | Compound | dimerization of FGF:FGFR complex (peaks in size exclusion chromatogram) (FGF2-FGFR1 complexes [1]) | dimerization of FGF:FGFR complex (dimer peak D in size exclusion chromatogram) (FGF2-FGFR1 complexes [1]) | proliferation of BaF3 cells over expressing FGFR1 (daily viable cell counts) ([2]; FGF2 50 ng/ml, SOS 0.1, 0.5, 1, 5 and 10 μM) | heparin-like or SOS-like activity (FGF ligand-dependent activation of FGF receptor, BaF3 cell growth) ([2]; BaF3 cells grown with suramin instead of heparin or SOS, contacted with FGF ligand) | autophosphorylation of the FGF receptor (FGFR1) | autophosphorylation of ERK-1 and ERK-2 (ERK-1 and ERK-2) | proliferation of BaF3 cells over expressing FGFR1 (daily viable cell counts) [4]
1 | 13 | increases FGF-FGFR binding affinity | O=S(=O)(O)OC[C@H]1O[C@@](COS(=O)(=O)O)(O[C@H]2O[C@H](COS(=O)(=O)O)[C@@H](OS(=O)(=O)O)[C@H](OS(=O)(=O)O)[C@H]2OS(=O)(=O)O)[C@@H](OS(=O)(=O)O)[C@@H]1OS(=O)(=O)O [SOS, sucrose octasulfate] | only a peak corresponding to FGF:FGFR dimers is observed | a third peak corresponding to dimers of the FGF:FGFR complex is observed | supports FGF2 in inducing proliferation of the BaF3 cells over expressing FGFR1 in a dose-dependent manner | – | – | – | –
2 | – | – | Cc1ccc(C(=O)Nc2ccc(S(=O)(=O)O)c3cc(S(=O)(=O)O)cc(S(=O)(=O)O)c23)cc1NC(=O)c1cccc(NC(=O)Nc2cccc(C(=O)Nc3cc(C(=O)Nc4ccc(S(=O)(=O)O)c5cc(S(=O)(=O)O)cc(S(=O)(=O)O)c45)ccc3C)c2)c1 [suramin] | only a peak corresponding to the FGF:FGFR dimers is observed | a third peak corresponding to dimers of the FGF:FGFR complex is observed | – | no heparin-like or SOS-like activity was observed | – | – | –
3 | – | – | heparin | – | – | – | – | stimulated autophosphorylation of the FGF receptor | induces autophosphorylation of ERK-1 and ERK-2 | –
4 | – | – | sulfonated β-cyclodextrin | – | – | – | – | results in autophosphorylation of the FGF receptor | induces autophosphorylation of ERK-1 and ERK-2 | supports the FGF ligand in inducing proliferation of the BaF3 cells over expressing FGFR1 in a dose-dependent manner
